Test results from the NIST ThermoML archive (doi:10.1021/acs.jced.7b01030).
Several values for one entry are separate records, joined by “and”; a condition that tells them apart may be missing. Identical values can stand only once.

Conditions: Liquid; for self diffusion coefficient: NMR spin-echo technique; for viscosity: Falling or rolling sphere viscometry; for mass density: Vibrating tube method

OCC(F)(F)F [2,2,2-trifluoroethanol]
Conditions	mass density	self diffusion coefficient [m2/s]	viscosity
253.24 K, 100 kPa	–	1.33e-10	–
258.45 K, 100 kPa	–	1.68e-10	–
258.49 K, 100 kPa	–	1.68e-10	–
263.15 K, 100 kPa	–	–	5.502 mPa·s and 5.485 mPa·s
263.15 K, 9900 kPa	–	–	6.125 mPa·s
263.15 K, 10000 kPa	–	–	6.134 mPa·s
263.15 K, 24500 kPa	–	–	7.159 mPa·s
263.15 K, 24600 kPa	–	–	7.168 mPa·s
263.15 K, 50500 kPa	–	–	9.212 mPa·s
263.15 K, 50600 kPa	–	–	9.203 mPa·s
263.15 K, 75500 kPa	–	–	11.52 mPa·s and 11.51 mPa·s
263.15 K, 100200 kPa	–	–	14.28 mPa·s
263.15 K, 101000 kPa	–	–	14.38 mPa·s
263.15 K, 131600 kPa	–	–	18.4 mPa·s
263.15 K, 132200 kPa	–	–	18.53 mPa·s
263.37 K, 100 kPa	–	2.05e-10	–
263.39 K, 100 kPa	–	2.06e-10	–
268.15 K, 100 kPa	–	–	4.517 mPa·s and 4.513 mPa·s
272.82 K, 79000 kPa	–	1.66e-10	–
272.84 K, 25700 kPa	–	2.48e-10	–
272.86 K, 100 kPa	–	3.06e-10	–
272.87 K, 100 kPa	–	3.06e-10	–
272.9 K, 200500 kPa	–	7.6e-11	–
272.91 K, 299000 kPa	–	4.23e-11	–
272.93 K, 249000 kPa	–	5.7e-11	–
272.99 K, 150000 kPa	–	1.04e-10	–
273.09 K, 98000 kPa	–	1.46e-10	–
273.15 K, 100 kPa	1424.26 kg/m3	–	3.798 mPa·s [middle of 5 runs]
273.15 K, 10400 kPa	–	–	4.226 mPa·s
273.15 K, 10500 kPa	–	–	4.224 mPa·s
273.15 K, 25500 kPa	–	–	4.909 mPa·s and 4.905 mPa·s
273.15 K, 50500 kPa	–	–	6.179 mPa·s and 6.166 mPa·s
273.15 K, 75000 kPa	–	–	7.57 mPa·s
273.15 K, 75500 kPa	–	–	7.582 mPa·s
273.15 K, 99800 kPa	–	–	9.373 mPa·s
273.15 K, 100300 kPa	–	–	9.375 mPa·s
273.15 K, 125600 kPa	–	–	11.37 mPa·s and 11.45 mPa·s
273.15 K, 125700 kPa	–	–	11.39 mPa·s
273.15 K, 150300 kPa	–	–	13.73 mPa·s
273.15 K, 150700 kPa	–	–	13.79 mPa·s
273.15 K, 176200 kPa	–	–	16.53 mPa·s
273.15 K, 176400 kPa	–	–	16.61 mPa·s
273.15 K, 201100 kPa	–	–	19.6 mPa·s and 19.51 mPa·s
273.15 K, 233500 kPa	–	–	24.25 mPa·s
273.15 K, 233700 kPa	–	–	24.29 mPa·s
273.25 K, 100 kPa	–	3.07e-10	–
273.25 K, 50000 kPa	–	2.04e-10	–
273.8 K, 100 kPa	–	3.3e-10	–
278.15 K, 100 kPa	1416.08 kg/m3	–	3.311 mPa·s and 3.305 mPa·s
278.59 K, 100 kPa	–	3.94e-10	–
278.63 K, 100 kPa	–	3.87e-10	–
283.15 K, 100 kPa	1407.84 kg/m3 and 1407.85 kg/m3	–	2.746 mPa·s and 2.749 mPa·s
288.15 K, 100 kPa	1399.56 kg/m3	–	2.363 mPa·s and 2.368 mPa·s
288.53 K, 100 kPa	–	5.41e-10	–
288.56 K, 100 kPa	–	5.3e-10	–
293.15 K, 100 kPa	1391.18 kg/m3 and 1391.19 kg/m3	–	2.077 mPa·s [middle of 4 runs]
298.15 K, 100 kPa	1382.73 kg/m3 and 1382.71 kg/m3	–	1.781 mPa·s [middle of 7 runs]
298.15 K, 10200 kPa	–	–	1.98 mPa·s and 1.981 mPa·s
298.15 K, 25400 kPa	–	–	2.267 mPa·s and 2.264 mPa·s
298.15 K, 49900 kPa	–	–	2.755 mPa·s
298.15 K, 50200 kPa	–	–	2.773 mPa·s
298.15 K, 74900 kPa	–	–	3.317 mPa·s
298.15 K, 75100 kPa	–	–	3.314 mPa·s
298.15 K, 100400 kPa	–	–	3.929 mPa·s
298.15 K, 100600 kPa	–	–	3.938 mPa·s
298.15 K, 125200 kPa	–	–	4.612 mPa·s
298.15 K, 125400 kPa	–	–	4.61 mPa·s
298.15 K, 150100 kPa	–	–	5.347 mPa·s
298.15 K, 175000 kPa	–	–	6.198 mPa·s
298.15 K, 175200 kPa	–	–	6.197 mPa·s
298.15 K, 197500 kPa	–	–	6.965 mPa·s
298.15 K, 197800 kPa	–	–	6.993 mPa·s
298.15 K, 200700 kPa	–	–	7.21 mPa·s
298.15 K, 201700 kPa	–	–	7.297 mPa·s
298.15 K, 224400 kPa	–	–	8.254 mPa·s
298.15 K, 226100 kPa	–	–	8.33 mPa·s
298.15 K, 256900 kPa	–	–	9.931 mPa·s
298.15 K, 258400 kPa	–	–	10.03 mPa·s
298.15 K, 276700 kPa	–	–	10.98 mPa·s
298.15 K, 277800 kPa	–	–	11.04 mPa·s
298.15 K, 300600 kPa	–	–	12.3 mPa·s
298.15 K, 301600 kPa	–	–	12.43 mPa·s
298.15 K, 325400 kPa	–	–	13.99 mPa·s
298.15 K, 326500 kPa	–	–	14.06 mPa·s
298.15 K, 348800 kPa	–	–	15.77 mPa·s
298.15 K, 351100 kPa	–	–	15.95 mPa·s
298.26 K, 100 kPa	–	6.91e-10	–
298.32 K, 100 kPa	–	6.96e-10	–
298.34 K, 100 kPa	–	7.21e-10	–
298.35 K, 100 kPa	–	7.06e-10	–
298.36 K, 100 kPa	–	6.95e-10	–
298.55 K, 100 kPa	–	6.99e-10	–
299.89 K, 25000 kPa	–	6.08e-10	–
299.91 K, 50000 kPa	–	5.11e-10	–
299.91 K, 72500 kPa	–	4.38e-10	–
299.92 K, 100 kPa	–	7.35e-10	–
299.92 K, 300000 kPa	–	1.32e-10	–
299.93 K, 98000 kPa	–	3.77e-10	–
299.93 K, 199000 kPa	–	2.14e-10	–
299.94 K, 149000 kPa	–	2.87e-10	–
299.94 K, 350000 kPa	–	1.09e-10	–
299.98 K, 250000 kPa	–	1.72e-10	–
300.4 K, 100 kPa	–	7.52e-10	–
303.15 K, 100 kPa	–	–	1.574 mPa·s and 1.565 mPa·s
